Experimental data from PubChem BioAssay (NCI).
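How tested: cells in 96-well plates exposed to compound for 48 hours at five concentrations. GI50 = concentration required for 50% inhibition of growth. Definition used: TGI = concentration required for complete inhibition of growth.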

Legend:
Assay in all cases: NCI tumour cell line growth inhibition, 48 h
[1] = system: SF-295 CNS
[2] = system: UACC-257 melanoma
[3] = system: HS 578T breast
[4] = system: RPMI-8226 leukemia
[5] = system: HT29 colon
[6] = system: 786-0 renal
[7] = system: M14 melanoma
[8] = system: OVCAR-4 ovarian
[9] = system: SW-620 colon
[10] = system: NCI-H460 lung

Compound	GI50 [1] [µM]	TGI [1] [µM]	GI50 [2] [µM]	TGI [2] [µM]	GI50 [3] [µM]	TGI [3] [µM]	GI50 [4] [µM]	TGI [4] [µM]	GI50 [5] [µM]	TGI [5] [µM]	GI50 [6] [µM]	TGI [6] [µM]	GI50 [7] [µM]	TGI [7] [µM]	GI50 [8] [µM]	TGI [8] [µM]	GI50 [9] [µM]	TGI [9] [µM]	GI50 [10] [µM]	TGI [10] [µM]
COC(=O)C(C)NP(=O)(OCc1ccc(Cn2cnc3c(=O)[nH]c(N)nc32)cc1)Oc1ccccc1 (stereo not drawn)	> 100	> 100	> 100	> 100	> 100	> 100	> 100	> 100	> 100	> 100	> 100	> 100	> 100	> 100	> 100	> 100	> 100	> 100	> 100	> 100
O=C(O)c1ccc(O)c(N=Nc2cc(S(=O)(=O)O)c3ccccc3c2O)c1		> 10		> 10				> 100		> 100		> 100				> 100		> 100		> 100
Cc1c(C(=O)CC(=O)C(=O)Nc2ccc(Cl)c(Cl)c2)[n+](=O)c2ccccc2n1[O-]		> 100		34.5				45.7		74.5		69		36.5		34.7		71.8		57.1
NC1=C(Cl)C(=O)c2ccc(S(N)(=O)=O)cc2C1=O	0.143	0.289	0.128	0.267	0.126		0.354	2.04	0.715	2.91	1.82	3.24	0.134	0.278	0.324	1.01	0.293	0.89	0.21	0.487
Nc1ncnc(NC2C=C(CO)C(O)C2O)c1[N+](=O)[O-] (stereo not drawn)		> 100		> 100				> 100		> 100		> 100		> 100		> 100		59		> 100
O=[N+]([O-])c1cc(CCl)ccc1CCl		19.7		> 20.1		11.4		3.91		3.22		3.34		3.59		3.22		4.54		> 39.3
COc1ccc(-c2cnc3ccnn3c2-c2cc(OC)c(OC)c(OC)c2)cc1	1.93	20	91.6	> 100	2.37	> 100	4.14	> 100	3.01	> 100	4.31	> 100	2.65	35.5	9.69	> 100	2.36	> 100	3.39	> 100
S=c1nc2[nH]ncc2c(N/N=C/c2ccccc2)[nH]1	> 100	> 100	> 100	> 100	> 100	> 100	60.6	> 100			> 100	> 100	> 100	> 100	> 100	> 100	> 100	> 100	93.6	> 100
CC(C)NCC(O)COC(=O)c1cccs1 (stereo not drawn)				> 100				> 100		> 100		> 100		> 100		> 100		> 100		> 100
ClC1CCC2OOC1O2 (stereo not drawn)		> 100		> 100				> 100		> 100		> 100		> 100		> 100		> 100		> 100
N/C(=N\N=C\c1cccs1)NO		> 100		> 100						> 100		> 100		> 100		> 100		> 100		> 100
CCc1ccccc1NC(=O)CCc1n[nH]c(=S)o1		> 100		> 100				> 100		> 100		> 100		> 100		> 100		44.1		> 100
COC(=O)C(C(=O)C(=O)Nc1ccccc1C(C)=O)c1nc2ccc(Cl)cc2[nH]c1=O (stereo not drawn)		> 100		> 100				> 100		> 100		> 100		> 100		> 100		> 100		> 100
CN(C)C(=O)/N=c1\ss/c(=N\C(=S)N(C)C)n1-c1ccccc1		> 100		28.6			0.291	> 100				47.1		> 74.5		60.2		> 100		> 100
CC1(C)OC(C(N)=O)=C(C(N)=O)O1		> 100		> 100						> 100		> 100		> 100		> 100		> 100		> 100
Cn1cccc1-c1cc(-c2cccs2)[nH]c(=O)c1C#N	> 100	> 100	> 100	> 100	> 100	> 100	> 100	> 100	> 100	> 100	> 100	> 100			> 100	> 100	> 100	> 100	69.6	> 100
COc1cc(-c2cc(=O)c3ccccc3o2)ccc1N		> 100		> 100				> 100		> 100		> 100		> 100		> 100		> 100		> 100
CCC(C)OC(=O)C1C2CCC(O2)C1C(=O)O (stereo not drawn)		> 100		> 100				> 68.7		> 66.2		> 62.7		> 100		> 100		> 32.1		> 55.4
O=C(/C=C\c1cccc2ccccc12)c1cccs1		34.6		26.1				7.68		17.4		22.5		28.3		32.9		2.99		27.7
COC(=O)C(C(=O)C(=O)NC1=C(Cl)C(=O)c2ccccc2C1=O)c1csc(-n2nc(-c3ccccc3)cc2-c2ccccc2)n1 (stereo not drawn)		> 100		> 100				> 100		> 100		> 100		> 100		> 100		> 100		> 100

Compound	GI50 [1] [µM]	TGI [1] [µM]	GI50 [2] [µM]	TGI [2] [µM]	GI50 [3] [µM]	TGI [3] [µM]	GI50 [4] [µM]	TGI [4] [µM]	GI50 [5] [µM]	TGI [5] [µM]	GI50 [6] [µM]	TGI [6] [µM]	GI50 [7] [µM]	TGI [7] [µM]	GI50 [8] [µM]	TGI [8] [µM]	GI50 [9] [µM]	TGI [9] [µM]	GI50 [10] [µM]	TGI [10] [µM]
Cc1ccccc1NC(=O)C(=O)C(c1cnc2ccc([N+](=O)[O-])cc2n1)[N+](=O)[O-] (stereo not drawn)		> 100		> 100				> 100		> 100		> 100		> 100		> 100		> 100		> 100
CN1CCC[C@@H]1CCO[C@](C)(c1ccccc1)c1ccc(Cl)cc1	2.32	6.43	1.9	4.17	12.2	36			3.06	11.3	5.88	19.7	1.82	3.45	8.46	22	5.5	18.8	4.94	17.1
C#CCOCn1cnc2c(=S)nc[nH]c21		> 100		> 100				> 100		> 100		> 100		> 100		> 100		> 100		> 100
COC(=O)C(=O)C(C(=O)C(=O)Nc1ccc(Cl)cc1C)c1nc2ccc(C(=O)c3ccccc3)cc2[nH]c1=O (stereo not drawn)		> 100		> 100				> 100		> 100		> 100		> 100		> 100		> 100		> 100
O=C1C(=O)N(C(=O)c2ccc(Cl)c(Cl)c2)c2ccc(Cl)cc21		> 100						> 100		> 100		> 100		> 100		> 100		> 100		> 100
O=c1c2ccccc2nc(-c2ccc(Br)cc2)n1NC1OC(CO)C(O)C(O)C1O (stereo not drawn)		> 100		> 100				> 100		> 100		> 100		> 100		> 100		> 100		> 100
CC(=O)NC(CCCCNC(=O)N(CCCl)N=O)C(=O)NCc1ccccc1 (stereo not drawn)		> 100		> 100				> 100		> 100		> 100		> 100		> 100		> 100		> 100
Cc1ccc(S(=O)(=O)/N=c2\ssc(Nc3ccccc3)c2Cl)cc1	1.15	12.4	9.86	30.3			7.77	26.8	17.2	> 50	27.7	> 50	22.8	> 50	33.6	> 50			9.02	19.6
NC(=O)N/N=C(\C(=O)C(=O)Nc1ccc(Cl)c(C(F)(F)F)c1)c1nc2ccc(C(=O)c3ccccc3)cc2[nH]c1=O		> 100		> 100				> 100		> 100		> 100		> 100		> 100		> 100		> 100
COC(=O)C1=CN=C(C(=O)OC)NN1		> 100		> 100				> 100		> 100		> 100		> 100		> 100		> 100		> 100
Cc1oc2c(C)c(O)c3c(c2c1C1(C)OCCO1)C(=O)C=C(Cl)C3=O		> 100		> 100				> 100		> 100		> 100		> 100		> 100		> 100		> 100
CN=C1Nc2ccc(Cl)cc2C(c2ccccc2)=NN1C		> 100		> 100				> 100		> 100		> 100		> 100		> 100		> 100		> 100
C[C@@H](CO)OCOCc1ccccc1		> 100		> 100				> 100		> 100		> 100		> 100		> 100		> 100		> 100
COC(=O)C1(C(=O)OC)CC2c3c(c4ccccc4n3C)CC(C1=O)N2Cc1ccccc1 (stereo not drawn)		> 100		> 100				> 100		> 100		> 100		> 100		> 100		> 100		> 100
N.N.N.N.N.N.[I-].[Os]	> 100	> 100	> 100	> 100			> 100	> 100	> 100	> 100	> 100	> 100	> 100	> 100	> 100	> 100	> 100	> 100	> 100	> 100
C/C=C/C=N/N(C(=O)c1cc([N+](=O)[O-])cc([N+](=O)[O-])c1)C1=NC(c2ccccc2)C(c2ccccc2)=NN1 (stereo not drawn)		> 100		70.8				> 100		> 100		> 100		> 100		> 100		> 100		> 100
Cc1cc(O)c(C(c2cccnc2)c2c(O)cc(C)[nH]c2=O)c(=O)[nH]1		> 100		> 100		> 100		> 100		> 100		> 100		> 100		> 100				> 100
O=C(O)c1ccc2c(c1Nc1ccccc1)C(=O)c1ccccc1C2=O	20.3	> 100	54.8	> 100					98.4	> 100	39.4	> 100	38.1	> 100	86.1	> 100	44.1	> 100	27.3	> 100
CC#CS(=O)(=O)c1ccccc1		14.5		12.1		41.8				14.4		16.4		21.4		11.7		16.5		38
COc1cc2nc(Sc3c([N+](=O)[O-])ncn3C)[nH]c2cc1OC		> 100		78.3				> 100		> 100		> 100		> 100		> 100		> 100		> 100
